This is an account of results in patent US4344949A, “Substituted acyl derivatives of 1,2,3,4-tetrahydroisoquinoline-3-carboxylic acids” (Warner-Lambert Company, priority 1981, dated 1982).

Where a name gives a salt, the structure may show the parent alone.

This test addresses T1, guinea pig serum ACE (angiotensin converting enzyme) (Cavia porcellus, UniProt H0UWL7).
T1 construct: ACE from guinea pig serum; from tissue; host or cells: guinea pig serum
T1 sequence (H0UWL7 33-1302): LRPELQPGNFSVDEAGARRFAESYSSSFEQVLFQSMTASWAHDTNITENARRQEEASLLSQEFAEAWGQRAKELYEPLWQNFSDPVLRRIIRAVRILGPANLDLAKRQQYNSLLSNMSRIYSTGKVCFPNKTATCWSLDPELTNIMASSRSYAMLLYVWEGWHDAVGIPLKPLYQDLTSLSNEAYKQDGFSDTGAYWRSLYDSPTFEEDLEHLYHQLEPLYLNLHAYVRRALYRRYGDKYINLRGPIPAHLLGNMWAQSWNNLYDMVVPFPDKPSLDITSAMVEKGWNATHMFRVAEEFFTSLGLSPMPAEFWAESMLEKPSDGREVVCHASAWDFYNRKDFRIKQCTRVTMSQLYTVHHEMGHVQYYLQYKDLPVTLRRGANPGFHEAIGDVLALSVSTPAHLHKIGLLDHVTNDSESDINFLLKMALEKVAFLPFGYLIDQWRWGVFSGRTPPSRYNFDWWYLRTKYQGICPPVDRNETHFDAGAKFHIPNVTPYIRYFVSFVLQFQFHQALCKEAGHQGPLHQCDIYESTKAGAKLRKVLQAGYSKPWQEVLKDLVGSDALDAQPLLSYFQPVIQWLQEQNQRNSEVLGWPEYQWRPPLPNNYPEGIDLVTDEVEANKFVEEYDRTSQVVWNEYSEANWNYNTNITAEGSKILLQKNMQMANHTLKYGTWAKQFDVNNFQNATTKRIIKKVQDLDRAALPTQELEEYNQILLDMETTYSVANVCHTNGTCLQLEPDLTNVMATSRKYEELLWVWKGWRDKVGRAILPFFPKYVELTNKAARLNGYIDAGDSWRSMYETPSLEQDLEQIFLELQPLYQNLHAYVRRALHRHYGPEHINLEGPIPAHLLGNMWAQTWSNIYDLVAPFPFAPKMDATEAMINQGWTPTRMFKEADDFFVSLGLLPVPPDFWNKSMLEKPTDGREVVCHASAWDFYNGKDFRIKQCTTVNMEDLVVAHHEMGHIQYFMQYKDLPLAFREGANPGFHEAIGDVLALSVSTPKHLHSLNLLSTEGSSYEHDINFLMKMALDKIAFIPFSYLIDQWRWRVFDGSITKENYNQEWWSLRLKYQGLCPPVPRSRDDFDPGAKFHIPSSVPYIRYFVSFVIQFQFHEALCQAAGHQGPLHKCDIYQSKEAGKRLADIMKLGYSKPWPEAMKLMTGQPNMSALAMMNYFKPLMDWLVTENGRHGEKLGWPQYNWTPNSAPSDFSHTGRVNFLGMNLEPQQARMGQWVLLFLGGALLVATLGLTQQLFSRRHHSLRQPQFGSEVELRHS
The test is described as follows: In vitro ACE assay (angiotensin converting enzyme inhibitory activity, guinea pig serum ACE, 3H-hippuryl-glycyl-glycine substrate). The format is biochemical. Particulars: 10 min preincubation, 60 min incubation at 37° C., S,S,S configuration, hydrochloride salt (+) or maleate salt (#) by footnote, read-out: ACE I Activity (in vitro) IC50 Molar Conc. How it is done: In vitro ACE Assay: Angiotensin converting enzyme (ACE) inhibitory activity was determined by assaying guinea pig serum ACE in the presence and absence of the test compound. ACE from guinea pig serum and the test compounds were preincubated for 10 minutes before the addition of the labelled substrate ^3 H-hippuryl-glycyl-glycine. After a 60 minute incubation of 37° C. the reaction was stopped by the addition of 0.1 N HCl. ACE cleaves the hippuryl-glycyl bond to form the dipeptide glycyl-glycine and ^3 H-hippuric acid. The ^3 H-hippuric acid was then extracted with ethyl acetate and the ACE activity of a given sample calculated as the amount of ^3 H-hippuric acid generated.
For `CCOC(=O)[C@H](CCc1ccccc1)N[C@@H](C)C(=O)N1Cc2cc(OC)c(OC)cc2C[C@H]1C(=O)O` [R=H, R2=Et, X=OCH3, Y=OCH3, 2-[2-[[1-(Ethoxycarbonyl)-3-phenylpropyl]amino]-1-oxopropyl]-1,2,3,4-tetrahydro-6,7-dimethoxy-3-isoquinolinecarboxylic Acid, Hydrochloride, Hydrate (S,S,S)], the IC50 was 5.6 nM.

As for `CCOC(=O)[C@H](CCc1ccccc1)N[C@@H](C)C(=O)N1Cc2ccccc2C[C@H]1C(=O)OCc1ccccc1` [R=PhCH2, R2=Et, X=H, Y=H, 2-[2-[[1-(Ethoxycarbonyl)-3-phenylpropyl]amino]-1-oxopropyl]-1,2,3,4-tetrahydro-3-isoquinolinecarboxylic Acid, Phenylmethyl Ester, Maleate (S,S,S)], the IC50 came to 2000 nM.

Take `CCOC(=O)[C@H](CCc1ccccc1)N[C@@H](C)C(=O)N1Cc2cc(OC)c(OC)cc2C[C@H]1C(=O)OCc1ccccc1` [R=PhCH2, R2=Et, X=OCH3, Y=OCH3, 2-[2-[[1-(Ethoxycarbonyl)-3-phenylpropyl]amino]-1-oxopropyl]-1,2,3,4-tetrahydro-6,7-dimethoxy-3-isoquinolinecarboxylic Acid, Phenylmethyl Ester, Maleate (S,S,S)]: the IC50 stood at 300 nM.

Take `CCOC(=O)[C@H](CCc1ccccc1)N[C@@H](C)C(=O)N1Cc2ccccc2C[C@H]1C(=O)OC(C)(C)C` [R=t-Bu, R2=Et, X=H, Y=H]: the IC50 came out at 3200 nM.
